This is an account of results in patent US5994342A, “3-(substituted methyl)-4-oxa-1-azabicyclo[3.2.0]heptan-7-one derivatives useful as antitumor agents” (priority 1994, dated 1999).

The structures appear in SMILES notation. Converted amounts (≈) assume the structure as drawn. Structures can show the parent of a compound that is named as a salt.

This test deals with KB cells. Kind of test: In vitro KB cell cytotoxicity assay (crystal violet). To be noted: Homo sapiens, 72 h, 3 days culture, read-out: KB Cell Cytotoxicity TD50. Format: cell-based. On the procedure: In Vitro KB Cell Cytotoxicity Assay In vitro KB cell cytoxocity assay was done by modification of the crystal violet assay ([…] et al., Anal Biochem., 159, 109-113 (1986). KB cells were cultivated in Eagles minimum essential medium supplemented with 10% calf serum and incubated at 37° C. in a humidified 5% CO2 atmosphere to prepare a cell stock. Cells were counted using a neubauer hemocytometer and seeded in 96 well plates at 100 μl of 3×10^4 cells/ml and cultured for one day. […] Control wells were identical except that test compound was absent. These were cultured for three days. Then the cells were fixed with addition of 20 μl of 25% glutaraldehyde for 15 minutes, washed with water and dried. Then stained with 100 μl of 0.05% crystal violet for 15 minutes, washed with water and dried. The wells are eluted with […] of 0.05M NaH2 PO4 /ethanol (1:1 v/v) and read at OD540 on a multiscan spectrophotometer. Inhibition value of cell growth was calculated based on optical density using the following equation; [formula] TD50 values were calculated from linear regression ines of the log-logit plot.
On to `CC(=O)N[C@@H](C(=O)OC[C@H]1CN2C(=O)C[C@@H]2O1)C(C)C` (mixture of isomers) [Example 61, (3RS,5SR)-3-(D-2-Acetylamino-3-methylbutyryl)oxymethyl-4-oxa-1-azabicyclo[3.2.0]heptan-7-one], for which the IC50 stood at 0.385 µg/mL. In the case of `CC(C)C(=O)NC[C@@H]1CN2C(=O)C[C@H]2O1` (racemic) [Example 5, (3RS,5RS)-3-[N-(2-Methylpropanoyl)aminomethyl]-4-oxa-1-azabicyclo[3.2.0]heptan-7-one], the IC50 was 0.181 µg/mL (≈ 0.853 µM). In the case of `[N-]=[N+]=NCC(=O)NC[C@@H]1CN2C(=O)C[C@H]2O1` (racemic) [Example 9, (3RS,5RS)-3-[N-(Azidoacetyl)aminomethyl]-4-oxa-1-azabicyclo[3.2.0]heptan-7-one], the IC50 is 0.296 µg/mL (≈ 1.31 µM). Consider `O=C(Cn1ccnn1)NC[C@@H]1CN2C(=O)C[C@H]2O1` (racemic) [Example 10, (3RS,5RS)-3-[N-(1,2,3-Triazole-1-yl)acetylaminomethyl]-4-oxa-1-azabicyclo[3.2.0]heptan-7-one], for which the IC50 was 0.282 µg/mL (≈ 1.12 µM). Turning to `O=COCC(=O)NC[C@@H]1CN2C(=O)C[C@H]2O1` (racemic) [Example 11, (3RS,5RS)-3-[N-(Formyloxyacetyl)aminomethyl]-4-oxa-1-azabicyclo[3.2.0]heptan-7-one], the IC50 came out at 0.147 µg/mL (≈ 0.644 µM). Regarding `O=C(CO)NC[C@@H]1CN2C(=O)C[C@H]2O1` (racemic) [Example 12, (3RS,5RS)-3-[N-(Hydroxyacetyl)aminomethyl]-4-oxa-1-azabicyclo[3.2.0]heptan-7-one], the IC50 worked out at 0.125 µg/mL (≈ 0.624 µM). As to `O=C(CCCCCBr)NC[C@@H]1CN2C(=O)C[C@H]2O1` (racemic) [Example 13, (3RS,5RS)-3-[N-(6-Bromohexanoyl)aminomethyl]-4-oxa-1-azabicyclo[3.2.0]heptan-7-one], the IC50 is 0.491 µg/mL (≈ 1.54 µM). Regarding `O=COCCCCCC(=O)NC[C@@H]1CN2C(=O)C[C@H]2O1` (racemic) [Example 14, (3RS,5RS)-3-[N-(6-Formyloxyhexanoyl)aminomethyl]-4-oxa-1-azabicyclo[3.2.0]heptan-7-one], the IC50 amounted to 0.243 µg/mL (≈ 0.855 µM).

As to `[N-]=[N+]=NCCCCCC(=O)NC[C@@H]1CN2C(=O)C[C@H]2O1` (racemic) [Example 15, (3RS,5RS)-3-[N-(6-Azidohexanoyl)aminomethyl]-4-oxa-1-azabicyclo[3.2.0]heptan-7-one], the IC50 came to 0.254 µg/mL (≈ 0.903 µM).

In the case of `O=C(CCCCCn1ccnn1)NC[C@@H]1CN2C(=O)C[C@H]2O1` (racemic) [Example 16, (3RS,5RS)-3-[N-[(1,2,3-Triazol-1-yl)hexanoyl]aminomethyl]-4-oxa-1-azabicyclo[3.2.0]heptan-7-one], the IC50 came to 0.318 µg/mL (≈ 1.03 µM). Regarding `CC(=O)NCCCCCC(=O)NC[C@@H]1CN2C(=O)C[C@H]2O1` (racemic) [Example 17, (3RS,5RS)-3-[N-(6-Acetylaminohexanoyl)aminomethyl]-4-oxa-1-azabicyclo[3.2.0]heptan-7-one], the IC50 is 0.439 µg/mL (≈ 1.48 µM).

`C=CCCC(=O)NC[C@@H]1CN2C(=O)C[C@H]2O1` (racemic) [Example 19, (3RS,5RS)-3-[N-(4-Pentenoyl)aminomethyl]-4-oxa-1-azabicyclo[3.2.0]heptan-7-one]: the IC50 stood at 0.266 µg/mL (≈ 1.19 µM).

With `C#CC(=O)NC[C@@H]1CN2C(=O)C[C@H]2O1` (racemic) [Example 20, (3RS,5RS)-3-[N-Propynoylaminomethyl]-4-oxa-1-azabicyclo[3.2.0]heptan-7-one], the IC50 came out at 0.333 µg/mL (≈ 1.71 µM). `O=C(NC[C@@H]1CN2C(=O)C[C@H]2O1)OCc1ccccc1` (racemic) [Example 21, (3RS,5RS)-3-[N-(Benzyloxycarbonyl)aminomethyl]-4-oxa-1-azabicyclo[3.2.0]heptan-7-one]: the IC50 is 0.34 µg/mL (≈ 1.23 µM). Then `O=C(NC[C@@H]1CN2C(=O)C[C@H]2O1)c1ccc(O)cc1` (racemic) [Example 24, (3RS,5RS)-3-[N-(4-Hydroxybenzoyl)aminomethyl]-4-oxa-1-azabicyclo[3.2.0]heptan-7-one], with 0.276 µg/mL (≈ 1.05 µM); and `COc1ccc(C(=O)NC[C@@H]2CN3C(=O)C[C@H]3O2)cc1` (racemic) [Example 25, (3RS,5RS)-3-[N-(4-Methoxybenzoyl)aminomethyl]-4-oxa-1-azabicyclo[3.2.0]heptan-7-one], with 0.255 µg/mL (≈ 0.923 µM). For `COc1ccc(C(=O)NC[C@@H]2CN3C(=O)C[C@H]3O2)cc1OC` (racemic) [Example 26, (3RS,5RS)-3-[N-(3,4-Dimethoxybenzoyl)aminomethyl]-4-oxa-1-azabicyclo[3.2.0]heptan-7-one], the IC50 was determined as 0.249 µg/mL (≈ 0.813 µM).

Turning to `O=C(NC[C@@H]1CN2C(=O)C[C@H]2O1)c1ccc(F)cc1` (racemic) [Example 27, (3RS,5RS)-3-[N-(4-Fluorobenzoyl)aminomethyl]-4-oxa-1-azabicyclo[3.2.0]heptan-7-one], the IC50 was 0.24 µg/mL (≈ 0.908 µM). In the case of `O=C(NC[C@@H]1CN2C(=O)C[C@H]2O1)c1cc(F)ccc1F` (racemic) [Example 28, (3RS,5RS)-3-[N-(2,5-Difluorobenzoyl)aminomethyl]-4-oxa-1-azabicyclo[3.2.0]heptan-7-one], the IC50 amounted to 0.379 µg/mL (≈ 1.34 µM). Next, `O=C(NC[C@@H]1CN2C(=O)C[C@H]2O1)c1cc(F)c(F)cc1F` (racemic) [Example 29, (3RS,5RS)-3-[N-(2,4,5-Trifluorobenzoyl)aminomethyl]-4-oxa-1-azabicyclo[3.2.0]heptan-7-one]: 0.535 µg/mL (≈ 1.78 µM); `N#Cc1ccc(C(=O)NC[C@@H]2CN3C(=O)C[C@H]3O2)cc1` (racemic) [Example 30, (3RS,5RS)-3-[N-(4-Cyanobenzoyl)aminomethyl]-4-oxa-1-azabicyclo[3.2.0]heptan-7-one]: 0.378 µg/mL (≈ 1.39 µM). Turning to `O=C(NC[C@@H]1CN2C(=O)C[C@H]2O1)c1cccnc1` (racemic) [Example 32, (3RS,5RS)-3-[N-[(Pyridin-3-yl)carbonyl]aminomethyl]-4-oxa-1-azabicyclo[3.2.0]heptan-7-one], the IC50 was determined as 0.78 µg/mL (≈ 3.15 µM).

Regarding `Cc1ccc(S(=O)(=O)NC[C@H]2CN3C(=O)C[C@H]3O2)cc1` (racemic) [Example 36, (3RS,5RS)-3-[N-(4-Toluenesulfonyl)aminomethyl]-4-oxa-1-azabicyclo[3.2.0]heptan-7-one], the IC50 worked out at 0.338 µg/mL (≈ 1.14 µM).

For `O=C1C[C@H]2O[C@@H](CNS(=O)(=O)c3ccc(Cl)cc3)CN12` (racemic) [Example 37, (3RS,5RS)-3-[N-(4-Chlorobenzenesulfonyl)aminomethyl]-4-oxa-1-azabicyclo[3.2.0]heptan-7-one], the IC50 worked out at 0.484 µg/mL (≈ 1.53 µM). `O=C(O)CCC(=O)NC[C@H]1CN2C(=O)C[C@@H]2O1` (relative stereo) [Example 18, Sodium{N-[(3RS,5RS)-7-oxo-1-aza-4-oxabicyclo[3.2.0]hept-3-yl]methylamino}succinate]: the IC50 stood at 2.85 µg/mL. As for `CC(=O)NC[C@@H]1CN2C(=O)C[C@H]2O1` [Example 3, (3R,5R)-3-(N-Acetylaminomethyl)-4-oxa-1-azabicyclo[3.2.0]heptan-7-one], the IC50 amounted to 3.15 µg/mL (≈ 17.1 µM). Then `C[C@H](N)C(=O)NCC1CN2C(=O)CC2O1` (stereo partly drawn) [Example 50B, (3RS,5RS)-3-N-(L-2-Aminopropanoyl)aminomethyl-4-oxa-1-azabicyclo[3.2.0]heptan-7-one hydrochloride], with 0.657 µg/mL; and `N[C@@H](CC(=O)O)C(=O)N[C@@H](Cc1ccccc1)C(=O)NCC1CN2C(=O)CC2O1` (stereo partly drawn) [Example 64B, (3RS,5RS)-3-N-[L-2-N-(L-2-Amino-3-carboxypropanoyl)amino-3-phenylpropanoyl]aminomethyl-4-oxa-1-azabicyclo[3.2.0]heptan-7-one], with 2.65 µg/mL (≈ 6.55 µM). Consider `O=C(N[C@@H](CO)C(=O)OCC1CN2C(=O)CC2O1)OCc1ccccc1` (stereo partly drawn) [Example 70, (3RS,5SR)-3-(L-2-N-Benzyloxycarbonylamino-3-hydroxypropanyl)oxymethyl-4-oxa-1-azabicyclo[3.2.0]heptan-7-one], for which the IC50 came out at 0.352 µg/mL (≈ 0.966 µM). As for `C[C@@H](NC(=O)OCc1ccccc1)C(=O)N[C@@H](CO)C(=O)OCC1CN2C(=O)CC2O1` (stereo partly drawn) [Example 71, (3RS,5SR)-3-[L-2-N-(D-2-N-Benzyloxycarbonylaminopropanoyl)amino-3-hydroxypropanoyl]oxymethyl-4-oxa-1-azabicyclo[3.2.0]heptan-7-one], the IC50 amounted to 0.549 µg/mL (≈ 1.26 µM). Next, `O=C(N[C@@H](COCc1ccccc1)C(=O)OCC1CN2C(=O)CC2O1)OCc1ccccc1` (stereo partly drawn) [Example 72, (3RS,5SR)-3-L-(2-N-Benzyloxycarbonylamino-3-benzyloxypropanoyl)oxymethyl-4-oxa-1-azabicyclo[3.2.0]heptan-7-one]: 1.67 µg/mL (≈ 3.67 µM); `C[C@@H](NC(=O)OCc1ccccc1)C(=O)N[C@@H](COCc1ccccc1)C(=O)OCC1CN2C(=O)CC2O1` (stereo partly drawn) [Example 73, (3RS,5R)-3-[L-2-N-(D-2-N-Benzyloxycarbonylaminopropanoyl)amino-3-benzyloxypropanoyl]oxymethyl-4-oxa-1-azabicyclo[3.2.0]heptan-7-one]: 2.22 µg/mL (≈ 4.22 µM); `N[C@@H](CO)C(=O)NCC1CN2C(=O)CC2O1` (stereo partly drawn) [Example 76B, (3RS,5RS)-3-[N-(L-2-Amino-3-hydroxypropanoyl)aminomethyl]-4-oxa-1-azabicyclo[3.2.0]heptan-7-one hydrochloride]: 8.81 µg/mL. In the case of `CC(=O)N[C@@H](CCCCNC(=O)OCc1ccccc1)C(=O)OCC1CN2C(=O)CC2O1` (stereo partly shown) [Example 78], the IC50 turned out to be 3.38 µg/mL (≈ 7.55 µM).
